Calls of active or inactive are those of the source.
What was measured:
Jurkat = test: SAR Analysis of small molecule inhibitors of […] specific antigen receptor-induced NF-kB activation in a Jurkat cell line using a luminescence assay - Set 3. [Related pubchem assays (depositor defined):AID435022, AID435025, AID465]; format: functional, cell-based; details: Homo sapiens
HEK293 [1] = test: SAR Analysis of small molecule inhibitors of B-cell specific antigen receptor-induced NF-kB activation in a HEK-293T cell line using a luminescence assay - Set 2. [Related pubchem assays (depositor defined):AID435022, AID435025, AID489021]; format: functional, cell-based; details: Homo sapiens
HEK293 [2] = test: cytotoxicity in HEK293T NF-kB-Luc cells, SAR follow-up, cytotoxicity control for NF-kB activator project, cell-based, resazurin fluorescence (AID 493251); format: functional; details: Homo sapiens
[3] = molecular target: T1, RNA-binding protein pos-1 (Caenorhabditis elegans, UniProt G5EF15); test: inhibitors of POS-1/mex-3 RNA binding, dose response, biochemical, fluorescence polarization (AID 1964);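 also: purified POS-1 fused to maltose binding protein made in E. coli; potency of compounds blocking POS-1 binding to fluorescent RNA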
T1 sequence (G5EF15 whole entry): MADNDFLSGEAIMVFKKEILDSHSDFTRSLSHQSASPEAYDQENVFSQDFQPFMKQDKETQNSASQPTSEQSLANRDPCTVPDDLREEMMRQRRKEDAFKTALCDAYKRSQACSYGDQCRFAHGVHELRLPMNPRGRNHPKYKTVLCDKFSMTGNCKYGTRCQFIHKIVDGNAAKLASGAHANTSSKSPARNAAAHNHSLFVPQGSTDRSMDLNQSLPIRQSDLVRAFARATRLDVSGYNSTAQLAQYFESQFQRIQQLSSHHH

[4] = molecular target: T2, Zinc finger protein mex-5 (Caenorhabditis elegans, UniProt Q9XUB2); test: MEX-5/TCR-2 RNA interaction inhibitors, dose response, biochemical, C. elegans, fluorescence polarization (AID 1960)
T2 sequence (Q9XUB2 whole entry): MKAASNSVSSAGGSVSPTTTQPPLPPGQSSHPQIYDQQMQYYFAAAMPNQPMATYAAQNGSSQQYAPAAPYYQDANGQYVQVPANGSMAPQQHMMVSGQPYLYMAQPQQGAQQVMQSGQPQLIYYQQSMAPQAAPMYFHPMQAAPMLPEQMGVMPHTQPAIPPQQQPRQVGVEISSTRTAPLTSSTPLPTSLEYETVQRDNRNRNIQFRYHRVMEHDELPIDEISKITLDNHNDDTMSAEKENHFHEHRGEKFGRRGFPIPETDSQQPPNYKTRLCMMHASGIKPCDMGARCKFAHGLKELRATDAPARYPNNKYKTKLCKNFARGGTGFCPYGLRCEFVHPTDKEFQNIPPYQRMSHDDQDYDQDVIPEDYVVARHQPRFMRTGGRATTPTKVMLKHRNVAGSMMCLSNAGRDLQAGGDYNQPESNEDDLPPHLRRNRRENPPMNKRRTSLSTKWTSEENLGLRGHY

HEK293 [5] = test: cells; format: functional, cell-based; details: Homo sapiens
[6] = molecular target: T3, Nuclear receptor subfamily 0 group B member 1 (Homo sapiens, UniProt P51843); test: Luminescence-based cell-based high throughput dose response assay for inhibitors of the orphan nuclear receptor subfamily 0, group B, member 1 (DAX1; NR0B1). [Related pubchem assays (depositor defined):AID504766, AID504790]; format: functional
T3 sequence (P51843 whole entry): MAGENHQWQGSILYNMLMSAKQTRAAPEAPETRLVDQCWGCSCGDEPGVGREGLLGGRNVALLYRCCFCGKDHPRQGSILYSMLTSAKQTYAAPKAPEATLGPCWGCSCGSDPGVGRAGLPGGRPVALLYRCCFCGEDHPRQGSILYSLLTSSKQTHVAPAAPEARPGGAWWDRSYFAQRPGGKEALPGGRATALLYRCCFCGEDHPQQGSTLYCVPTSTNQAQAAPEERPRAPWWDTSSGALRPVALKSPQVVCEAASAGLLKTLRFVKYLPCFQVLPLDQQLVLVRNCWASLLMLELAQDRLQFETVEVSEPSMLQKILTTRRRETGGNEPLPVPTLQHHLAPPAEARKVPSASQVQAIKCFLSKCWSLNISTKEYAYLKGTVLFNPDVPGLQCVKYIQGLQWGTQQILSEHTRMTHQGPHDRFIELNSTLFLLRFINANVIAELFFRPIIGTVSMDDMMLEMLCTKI

[7] = molecular target: T4, Oxysterols receptor LXR-beta (Homo sapiens, UniProt P55055); format: functional, cell-based;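 also: Cell-based luminescence dose-response assay of agonist activity at LXR, run as a confirmatory counterscreen to a daf-12 agonist screen; HEK293 cells with Gal4-LXR fusion and GAL4-driven luciferase reporter; agonist potency from rising luciferase signal of a Gal4-LXR reporter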
T4 sequence (P55055 whole entry): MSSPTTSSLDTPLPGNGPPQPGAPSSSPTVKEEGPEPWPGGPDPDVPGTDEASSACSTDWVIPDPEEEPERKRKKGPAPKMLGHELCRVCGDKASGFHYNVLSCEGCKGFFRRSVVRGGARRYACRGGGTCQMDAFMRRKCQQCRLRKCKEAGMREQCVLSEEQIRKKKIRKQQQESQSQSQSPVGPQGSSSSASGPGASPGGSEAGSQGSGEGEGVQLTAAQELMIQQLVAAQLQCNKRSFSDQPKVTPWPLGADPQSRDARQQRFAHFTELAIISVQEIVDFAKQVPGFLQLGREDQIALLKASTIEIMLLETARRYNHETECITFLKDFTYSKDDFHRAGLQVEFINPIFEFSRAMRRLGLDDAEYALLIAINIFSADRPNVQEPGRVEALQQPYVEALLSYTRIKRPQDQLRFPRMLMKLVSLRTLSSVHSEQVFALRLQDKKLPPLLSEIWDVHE

[8] = Luminescence Cell-Based Dose Confirmation HTS to Identify Activators of 5'UTR Stem-Loop Driven Alpha-Synuclein mRNA Translation in H4 Neuroglioblastoma Cells. [Related pubchem assays: 1829 (Project Summary), 1814 (Primary HTS)]; format: functional
[9] = Luminescence Cell-Based Dose Response HTS to Identify Activators of Luciferase Translation or Activity in H4 […] Cells. [Related pubchem assays: 1829 (Project Summary), 1814 (Primary HTS)]; format: functional
H4 = test: Luminescence Cell-Based Dose Response HTS to Identify Activators of 5'UTR Stem-Loop Driven Prion Protein mRNA Translation in H4 Neuroglioblastoma Cells. [Related pubchem assays: 1829 (Project Summary), 1814 (Primary HTS)]; format: functional; details: Homo sapiens
[10] = molecular target: FAD-linked sulfhydryl oxidase ALR (Homo sapiens, UniProt P55789); test: inhibitors of human ALR sulfhydryl oxidase, dose response, biochemical, H2O2 detection, luminescence, cherry-pick (AID 493248)
Vero = Vero cell cytotoxicity, cytotoxicity control for flavivirus capping enzyme inhibitors (AID 588742); format: functional; details: Chlorocebus sabaeus
Caspase-3 = molecular target: T5, Caspase-3 (Homo sapiens, UniProt P42574); format: functional;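 also: Dose-response selectivity test against caspase-3 for candidate inhibitors of sentrin-specific proteases (SENPs)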
T5 sequence (P42574 whole entry): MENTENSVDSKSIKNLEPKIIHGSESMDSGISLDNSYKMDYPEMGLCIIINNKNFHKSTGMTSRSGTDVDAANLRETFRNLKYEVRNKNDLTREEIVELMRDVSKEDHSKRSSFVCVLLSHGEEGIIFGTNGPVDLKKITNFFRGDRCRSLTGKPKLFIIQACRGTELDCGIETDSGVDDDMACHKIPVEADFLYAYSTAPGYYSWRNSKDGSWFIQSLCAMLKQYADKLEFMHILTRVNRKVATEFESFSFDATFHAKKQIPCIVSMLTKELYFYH

[11] = molecular target: T6, Sentrin-specific protease 7 (Homo sapiens, UniProt Q9BQF6); format: functional;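 also: Luminescence-based dose-response confirmation of ultra-high-throughput screening hits, measuring inhibition of SENP7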
T6 sequence (Q9BQF6 whole entry): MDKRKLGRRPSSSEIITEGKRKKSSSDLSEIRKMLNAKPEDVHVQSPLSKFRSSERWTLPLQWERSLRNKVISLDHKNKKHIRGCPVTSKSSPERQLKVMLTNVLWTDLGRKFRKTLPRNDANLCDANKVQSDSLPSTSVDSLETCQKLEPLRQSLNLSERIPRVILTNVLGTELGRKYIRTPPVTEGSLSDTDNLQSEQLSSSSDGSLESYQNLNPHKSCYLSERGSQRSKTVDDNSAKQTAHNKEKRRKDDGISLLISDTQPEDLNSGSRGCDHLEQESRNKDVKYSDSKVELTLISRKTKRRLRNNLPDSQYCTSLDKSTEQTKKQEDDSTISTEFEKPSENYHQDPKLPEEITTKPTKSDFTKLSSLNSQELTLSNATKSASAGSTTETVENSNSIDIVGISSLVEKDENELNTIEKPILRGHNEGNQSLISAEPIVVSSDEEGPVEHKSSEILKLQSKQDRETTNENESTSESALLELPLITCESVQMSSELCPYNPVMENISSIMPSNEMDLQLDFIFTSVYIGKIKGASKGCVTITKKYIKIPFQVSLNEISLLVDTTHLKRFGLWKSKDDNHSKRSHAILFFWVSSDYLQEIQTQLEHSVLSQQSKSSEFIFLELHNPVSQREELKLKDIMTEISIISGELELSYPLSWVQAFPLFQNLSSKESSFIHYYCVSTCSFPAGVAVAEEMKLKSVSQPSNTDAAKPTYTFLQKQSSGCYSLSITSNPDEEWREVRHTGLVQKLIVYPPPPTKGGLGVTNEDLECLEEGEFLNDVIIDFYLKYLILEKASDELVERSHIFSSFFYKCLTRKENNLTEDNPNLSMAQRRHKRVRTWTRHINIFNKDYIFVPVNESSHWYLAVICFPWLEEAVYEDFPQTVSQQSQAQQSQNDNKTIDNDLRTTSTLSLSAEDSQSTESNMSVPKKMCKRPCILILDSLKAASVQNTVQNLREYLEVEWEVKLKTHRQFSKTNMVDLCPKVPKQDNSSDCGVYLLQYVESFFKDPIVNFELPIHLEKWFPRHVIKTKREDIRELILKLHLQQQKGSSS

[12] = molecular target: T7, Sentrin-specific protease 6 (Homo sapiens, UniProt Q9GZR1); format: functional;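 also: Luminescence-based dose-response confirmatory assay of SENP6 inhibition, following up an ultra-high-throughput screen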
T7 sequence (Q9GZR1 whole entry): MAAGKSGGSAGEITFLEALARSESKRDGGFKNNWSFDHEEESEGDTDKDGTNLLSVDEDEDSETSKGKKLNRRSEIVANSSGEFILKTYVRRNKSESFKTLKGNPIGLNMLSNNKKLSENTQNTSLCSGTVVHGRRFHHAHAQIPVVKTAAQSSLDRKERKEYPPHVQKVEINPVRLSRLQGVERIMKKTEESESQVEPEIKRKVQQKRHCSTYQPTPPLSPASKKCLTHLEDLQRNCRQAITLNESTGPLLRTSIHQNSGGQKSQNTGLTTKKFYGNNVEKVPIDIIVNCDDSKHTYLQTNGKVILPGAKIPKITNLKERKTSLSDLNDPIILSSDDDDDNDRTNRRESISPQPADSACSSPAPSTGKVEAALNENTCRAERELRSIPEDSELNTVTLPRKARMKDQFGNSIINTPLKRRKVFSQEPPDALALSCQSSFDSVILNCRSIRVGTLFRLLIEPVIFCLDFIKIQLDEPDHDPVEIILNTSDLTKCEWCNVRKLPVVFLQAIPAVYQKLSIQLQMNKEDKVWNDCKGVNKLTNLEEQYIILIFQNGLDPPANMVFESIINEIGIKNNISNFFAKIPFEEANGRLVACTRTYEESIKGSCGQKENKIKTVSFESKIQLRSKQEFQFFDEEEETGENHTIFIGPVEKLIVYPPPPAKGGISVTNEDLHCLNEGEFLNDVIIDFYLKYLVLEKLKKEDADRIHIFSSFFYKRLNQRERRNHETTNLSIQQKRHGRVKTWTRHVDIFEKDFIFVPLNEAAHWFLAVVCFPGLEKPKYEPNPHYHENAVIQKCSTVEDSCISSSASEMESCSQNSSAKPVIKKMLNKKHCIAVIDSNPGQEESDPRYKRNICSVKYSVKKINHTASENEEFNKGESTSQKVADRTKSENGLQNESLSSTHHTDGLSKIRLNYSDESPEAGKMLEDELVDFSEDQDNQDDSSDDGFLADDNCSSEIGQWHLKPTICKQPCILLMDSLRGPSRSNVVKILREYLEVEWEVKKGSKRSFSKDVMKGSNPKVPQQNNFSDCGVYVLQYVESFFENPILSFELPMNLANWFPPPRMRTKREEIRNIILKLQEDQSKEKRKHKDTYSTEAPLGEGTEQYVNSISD

[13] = molecular target: T8, Sentrin-specific protease 8 (Homo sapiens, UniProt Q96LD8); format: functional;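 also: luminescence read-out of SENP8 inhibition, dose-response confirmation following an ultra-high-throughput screen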
T8 sequence (Q96LD8 whole entry): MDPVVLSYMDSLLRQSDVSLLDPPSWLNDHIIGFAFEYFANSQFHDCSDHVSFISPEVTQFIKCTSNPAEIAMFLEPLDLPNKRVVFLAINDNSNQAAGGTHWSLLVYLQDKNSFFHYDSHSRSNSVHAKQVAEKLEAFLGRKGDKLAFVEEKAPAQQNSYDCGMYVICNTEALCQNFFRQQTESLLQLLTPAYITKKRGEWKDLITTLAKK

Chain of FAD-linked sulfhydryl oxidase ALR (P55789 whole entry): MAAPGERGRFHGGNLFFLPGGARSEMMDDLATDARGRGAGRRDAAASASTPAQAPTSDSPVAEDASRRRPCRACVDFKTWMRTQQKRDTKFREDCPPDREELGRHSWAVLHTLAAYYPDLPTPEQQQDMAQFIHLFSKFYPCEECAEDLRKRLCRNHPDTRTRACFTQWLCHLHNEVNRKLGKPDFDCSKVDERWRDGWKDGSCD

## CCOc1ccc(-c2nc(CSCC(=O)NCCc3ccc(C)cc3)c(C)o2)cc1
Jurkat
  IC50: 49.8 µM (inactive)
HEK293 [1]
  IC50: 40.2 µM (inactive)
HEK293 [2]
  IC50: > 80 µM (inactive)

## CC(C)(C)c1ccc(-c2noc(CCC(=O)Nc3cccc([N+](=O)[O-])c3)n2)cc1
Jurkat
  IC50: 60.7 µM (inactive)
HEK293 [1]
  IC50: 3.73 µM (active)
HEK293 [2]
  IC50: 22.1 µM (inactive)

## Fc1ccc(-c2nc3c(Cl)cc(C(F)(F)F)cn3c2Cl)cc1
[3]
  EC50: 41.6 µM (active)
[4]
  EC50: 37.1 µM (active)
HEK293 [5]
  IC50: > 67.6 µM (inactive)
[6]
  IC50: > 67.6 µM (inactive)

## Cc1ccc(-c2cc(-c3ccc(F)cc3)[nH]n2)c(O)c1
HEK293 [5]
  IC50: > 67.5 µM (inactive)
[6]
  IC50: > 67.5 µM (inactive)
[7]
  EC50: > 67.5 µM (inactive)
cells
  EC50: > 67.5 µM (inactive)

## O=C1c2sc3nc4n(c(=O)c3c2CCC1Br)CCCCC4 (configuration not stated)
[8]
  EC50: 5.38 µM (active)
[9]
  EC50: 8.79 µM (active)
H4
  EC50: 7.07 µM (active)
[10]
  AC50: 1.7 µM (active)
Vero
  CC50: 24.2 µM (active)

## Nc1ccc(-c2nc3cc([N+](=O)[O-])ccc3[nH]2)cc1
Caspase-3
  IC50: 17.2 µM (active)
[11]
  IC50: 8.59 µM (active)
[12]
  IC50: 28.3 µM (active)
[13]
  IC50: 23.8 µM (active)

## Cc1ccc(NC(=O)CCc2c(C)nn(-c3ccc(N4CCCCC4)nn3)c2C)cc1F
Caspase-3
  IC50: 21.6 µM (active)
[11]
  IC50: 7.86 µM (active)
[12]
  IC50: 24.4 µM (active)
[13]
  IC50: 29.4 µM (active)
